How the values were obtained:
[1] = system: intestinal P-gp-mediated digoxin transport; assay: In situ rat single-pass intestinal perfusion; format: in vivo; details: for increase of digoxin Peff relative to digoxin alone: rat SPIP
[2] = system: P-gp expression in Caco-2 cells; assay: Western blot analysis of P-gp expression; format: cell-based; details: 48 h
[3] = 1 μM drug, not statistically significant

C[C@H]1O[C@@H](O[C@H]2[C@@H](O)C[C@H](O[C@H]3[C@@H](O)C[C@H](O[C@H]4CC[C@@]5(C)[C@H](CC[C@@H]6[C@@H]5C[C@@H](O)[C@]5(C)[C@@H](C7=CC(=O)OC7)CC[C@]65O)C4)O[C@@H]3C)O[C@@H]2C)C[C@H](O)[C@@H]1O [digoxin]
Peff of digoxin (20 μM) alone ([1]; rat jejunum SPIP, digoxin 20 μM, no inhibitor, n = 3, mean ± SD): 3.4 ± 0.8 × 10^-5cm/s

Cc1ccc(S(=O)(=O)NC(=O)NN2CC3CCCC3C2)cc1 (stereo not drawn) [gliclazide]
P-gp protein levels (P-gp/β-actin) relative to the untreated control ([2]; 500 μM drug): decreased
increase of digoxin Peff relative to digoxin alone ([1]; 0.1 μM drug, significant): about 59%
increase of digoxin Peff relative to digoxin alone ([1]; 10 μM drug, significant): ~76%
increase of digoxin Peff relative to digoxin alone ([1]; 500 μM drug, significant): ~153%

CN(C)C(=N)N=C(N)N [metformin]
P-gp protein levels (P-gp/β-actin) relative to the untreated control ([2]; 7000 μM drug): decreased
increase of digoxin Peff relative to digoxin alone [1, 3]: about 44%
increase of digoxin Peff relative to digoxin alone ([1]; 100 μM drug, P < 0.01): 117.6%
increase of digoxin Peff relative to digoxin alone ([1]; 7000 μM drug, P < 0.01): 167.6%

CCc1ccc(CCOc2ccc(CC3SC(=O)NC3=O)cc2)nc1 (stereo not drawn) [pioglitazone]
P-gp protein levels (P-gp/β-actin) relative to the untreated control ([2]; 300 μM drug): decreased
increase of digoxin Peff relative to digoxin alone [1, 3]: about 38%
increase of digoxin Peff relative to digoxin alone ([1]; 300 μM drug, P < 0.01): ~100%
